# From patent publication US20100267561A1, “HERBICIDAL PYRIDAZINONE DERIVATIVES” (priority 2007, published 2010)
# Tests used:
# Assay in all cases: Test B postemergence plant response
# Type in all cases: in vivo
# Conditions in all cases: Postemergence
# [1] = tested on: windgrass (Apera spica-venti)
# Procedure, shortened: (§1)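 Visual injury ratings on a 0–100 scale, where 100 means complete control, were made 13 to 15 days after postemergence treatment of greenhouse-grown plants at the 1- to 4-leaf stage.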
# [2] = tested on: winter barley (Hordeum vulgare)
# Procedure, shortened: as §1
# [3] = tested on: chickweed (Stellaria media)
# Procedure, shortened: as §1
# [4] = tested on: canarygrass (Phalaris minor)
# Procedure, shortened: as §1
# [5] = 31 g ai/ha, scale 0 to 100, 0 no effect, 100 complete control
Compound,"Plant response rating, Windgrass [1, 5]","Plant response rating, Windgrass ([1]; 62 g ai/ha, scale 0 to 100)","Plant response rating, Windgrass ([1]; 125 g ai/ha, scale 0 to 100)","Plant response rating, Windgrass ([1]; 250 g ai/ha, scale 0 to 100)","Plant response rating, Barley [2, 5]","Plant response rating, Barley ([2]; 62 g ai/ha, scale 0 to 100)","Plant response rating, Barley ([2]; 125 g ai/ha, scale 0 to 100)","Plant response rating, Barley ([2]; 250 g ai/ha, scale 0 to 100)","Plant response rating, Chickweed [3, 5]","Plant response rating, Chickweed ([3]; 62 g ai/ha, scale 0 to 100)","Plant response rating, Chickweed ([3]; 125 g ai/ha, scale 0 to 100)","Plant response rating, Chickweed ([3]; 250 g ai/ha, scale 0 to 100)","Plant response rating, Canarygrass [4, 5]","Plant response rating, Canarygrass ([4]; 62 g ai/ha, scale 0 to 100)","Plant response rating, Canarygrass ([4]; 125 g ai/ha, scale 0 to 100)","Plant response rating, Canarygrass ([4]; 250 g ai/ha, scale 0 to 100)"
Cc1cc(-c2ccc(Br)cc2)nn1-c1c(OC(=O)C2CC2)cnn(C)c1=O [Compound 5],95,100,100,100,30,90,95,95,0,0,0,0,80,100,100,100
CCc1cc(-c2ccc(C(F)(F)F)cc2)nn1-c1c(O)c(C)nn(C)c1=O [Compound 16],90,100,100,100,90,90,95,98,0,0,0,0,70,95,,
"5-[3-(4-chlorophenyl)-5-methyl-1H-pyrazol-1-yl]-1,6-dihydro-1-methyl-6-oxo-4-pyridazinyl-1-methylethyl carbonate [Compound 7]",80,85,100,100,,0,0,0,0,0,0,0,90,,90,90
